Patent publication US7148211B2, “Formulation for lipophilic agents” (Genzyme Corporation, priority 2002, dated 2006)

Tests used:
[1] = test system: patients with advanced androgen-independent prostate cancer; assay: Open-labeled clinical study of 1α,24-(OH)2D2 in advanced androgen-independent prostate cancer; format: in vivo; details: for progression of metastatic disease (CAT scans, X-rays, bone scans): second phase, after one and two years
Source text: (§1) Patients with advanced androgen-independent prostate cancer participate in an open-labeled study of 1α,24-(OH)2D2. […] On admission to the study, patients begin a course of therapy with intravenous 1α,24-(OH)2D2 lasting 26 weeks, while discontinuing any previous use of calcium supplements, vitamin D supplements, and vitamin D hormone replacement therapies. During treatment, the patients are monitored at regular intervals for: (1) hypercalcemia, hyperphosphatemia, hypercalciuria, hyperphosphaturia and other toxicity; (2) evidence of changes in the progression of metastatic disease; and (3) compliance with the prescribed test drug dosage.
(§2) The study is conducted in two phases. During the first phase, the maximal tolerated dosage (MTD) of daily 1α,24-(OH)2D2 is determined by administering progressively higher dosages to successive groups of patients. All doses are administered in the morning before breakfast. The first group of patients is treated with 25.0 μg of 1α,24-(OH)2D2 (formulated with 2.5% w/w benzyl alcohol, 0.5%–2.5% w/w TWEEN™-20, and 20 ppm BHT). Subsequent groups of patients are treated with 50.0, 75.0 and 100.0 μg/day. Dosing is continued uninterrupted for the duration of the study unless serum calcium exceeds 11.6 mg/dL, or other toxicity of grade 3 or 4 is observed, in which case dosing is held in abeyance until resolution of the observed toxic effect(s) and then resumed at a level which has been decreased by 10.0 μg.
(§3) During the second phase, patients are treated with 1α,24-(OH)2D2 for 24 months at 0.5 and 1.0 times the MTD.

[2] = test system: patients with advanced androgen-independent prostate cancer; assay: Study of Example 7 repeated for 1α-(OH)D2 in prostate cancer; format: in vivo, human; details: for progression of metastatic disease (CAT scans, X-rays, bone scans): phase two, after two years
Source text: as §1, §2, §3
The study of Example 7 is repeated for the active vitamin D compound, 1α-(OH)D2 (formulated with 2.5% w/w benzyl alcohol, 0.5%–2.5% w/w TWEEN™-20, and 20 ppm BHT). […] In summary, the present invention provides an improved formulation for lipophilic drug agents that are only slightly soluble in an aqueous vehicle. The formulation in addition to the lipophilic drug agent includes a lipophilic antioxidant, a non-ionic solubilizer or surfactant, and optionally, an agent which is an organic solvent/ preservative.

[3] = test system: elderly subjects with secondary hyperparathyroidism; assay: Open label study of elderly subjects with elevated blood PTH from secondary hyperparathyroidism; format: in vivo, human; details: oral 2.5 μg/day, twelve weeks
Method: Thirty elderly subjects with secondary hyperparathyroidism are enrolled in an open label study. The selected subjects have ages between 60 and 100 years and have elevated serum PTH levels (greater than the upper limit of young normal range). Subjects also have femoral neck osteopenia (femoral neck bone mineral density of […]).
Subjects are requested to keep a diet providing approximately 500 mg calcium per day without the use of calcium supplements. For a twelve week treatment period, subjects self-administer orally 2.5 μg/day 1α-OH-vitamin D2.(i.e., 2.5 μg doxercalciferol, 2.5% w/w benzyl alcohol, 0.5%–2.5% w/w TWEEN™-20, and 20 ppm BHT) At regular intervals throughout the treatment period, subjects are monitored for serum PTH levels, serum calcium and phosphorus, and urine calcium and phosphorus levels. Efficacy is evaluated by pre- and post-treatment comparisons of serum PTH levels. Safety is evaluated by serum and urine calcium and phosphorus values.

[4] = test system: End Stage Renal Disease patients with secondary hyperparathyroidism; assay: Double-blind placebo-controlled study in ESRD hemodialysis patients exhibiting secondary hyperparathyroidism; format: in vivo, human
Source text: Up to 120 ESRD (End Stage Renal Disease) patients undergoing chronic hemodialysis are studied in a multicenter, double-blind, placebo-controlled study based in two major U.S. metropolitan areas. The selected patients reside in two major metropolitan areas within the continental U.S., have ages between 20 and 75 years and have a history of secondary hyperparathyroidism. They have been on hemodialysis for at least four months, have a normal (or near normal) serum albumin, and have controlled serum phosphorus (often by using oral calcium phosphate binders).
On admission to the study, each patient is assigned at random to one of two treatment groups. One of these groups receives two consecutive 12-week courses of therapy with 1α-OH-vitamin D2 (doxercalciferol); the other receives a 12-week course of therapy with 1α-OH-vitamin D2 followed, without interruption, by a 12-week course of placebo therapy. Each patient discontinues any 1, α,25-(OH)2-vitamin D3 therapy for eight weeks prior to initiating 1α-OH-vitamin D2 therapy (daily dose of 4 μg doxercalciferol, formulated with 2.5% w/w benzyl alcohol, 0.5%–2.5% w/w TWEEN™-20, and 20 ppm BHT). Throughout this eight-week washout (or control) period and the two subsequent 12-week treatment periods, patients are monitored weekly for serum calcium and phosphorus. Serum intact PTH is monitored weekly or biweekly, and bone-specific serum markers, serum vitamin D metabolites, serum albumin, blood chemistries, hemoglobin and hematocrit are monitored at selected intervals.
During the study, patients undergo routine hemodialysis (three times per week) using a 1.24 mM calcium dialysate and ingest calcium phosphate binders (such as calcium carbonate or calcium acetate) in an amount sufficient to keep serum phosphate controlled (6.9 mg/dL). Patients who develop persistent mild hypercalcemia or mild hyperphosphatemia during the treatment periods reduce their 1α-OH-vitamin D2 to 4 μg three times per week (or lower). Patients who develop marked hypercalcemia or marked hyperphosphatemia immediately suspend treatment. Such patients are monitored at twice weekly intervals until the serum calcium or phosphorus is normalized, and resume 1α-OH-vitamin D2 dosing at a rate which is 4 μg three times per week (or lower).

[5] = treated with the MTD for at least six months

C=C1/C(=C\C=C2/CCC[C@]3(C)[C@@H]([C@H](C)/C=C/C(C)(O)C(C)C)CC[C@@H]23)C[C@H](O)C[C@H]1O (stereo partly drawn) [1α,24-(OH)2D2, 1α,24-dihydroxyvitamin D2]
circulating levels of 1α,25-(OH)2D2 ([1]; blood samples of patients treated with 1α,24-(OH)2D2): suppressed, often to undetectable levels
dose dependence of levels of circulating 1α,24-(OH)2D2 ([1]; human, in vivo): increase proportionately with the dosage administered
maximum levels of circulating 1α,24-(OH)2D2 ([1]; human, in vivo): above 100 pg/mL
serum and urine calcium ([1]; human, in vivo): elevated in a dose responsive manner
progression of metastatic disease (CAT scans, X-rays, bone scans) ([1]; higher dosage (1.0 times the MTD)): stable disease and partial or complete remission in many patients
progression of metastatic disease (CAT scans, X-rays, bone scans) ([1]; lower dosage (0.5 times the MTD)): stable disease or partial remission in many patients
bone pain associated with metastatic disease [1, 5]: significantly diminished

C=C1/C(=C\C=C2/CCC[C@]3(C)[C@@H]([C@H](C)/C=C/[C@H](C)C(C)C)CC[C@@H]23)C[C@@H](O)C[C@@H]1O [1α-OH-vitamin D2, 1α-hydroxyvitamin D2]
progression of metastatic disease (CAT scans, X-rays, bone scans) ([2]; higher dosage): stable disease and partial or complete remission in many patients
progression of metastatic disease (CAT scans, X-rays, bone scans) ([2]; lower dosage): stable disease or partial remission in many patients
bone pain associated with metastatic disease [2, 5]: significantly diminished
PTH levels, pre- and post-treatment comparison [3]: significantly reduce PTH levels
incidence of hypercalcemia, hyperphosphatemia, hypercalciuria and hyperphosphaturia [3]: insignificant incidence
reduction of serum PTH levels (study conclusion) ([4]; ESRD patients): effective in reducing serum PTH levels
mean serum PTH after initiation of dosing ([4]; ESRD patients, daily dose of 4 μg doxercalciferol formulated with benzyl alcohol, TWEEN-20, BHT): less than 50 % of pretreatment levels
safety compared with currently used therapies (study conclusion) ([4]; despite higher dosages and concurrent high levels of oral calcium phosphate binder): safer than currently used therapies
serum levels of calcium and phosphorus ([4]; end of first 12-week treatment period, for end stage renal disease patients): normal or near normal
hypercalcemia ([4]; patients exhibiting excessive suppression of serum PTH, corrected by dosage reduction): transient mild hypercalcemia is observed
